Source: patent US20050107466A1, “Method of treating or reducing suicidal thoughts with escitalopram” (H. Lundbeck A/S, priority 2003, published 2005)

How the values were obtained:
[1] = randomised, double-blind, parallel-group clinical trial, 8 weeks; HAM-D and MADRS items of suicidal thoughts; type: in vivo; settings: escitalopram daily dose of 10-20 mg compared with 40 mg citalopram; persons with major depression
Description: In brief, a clinical trial was designed as a randomised, double-blind, parallel-group trial comprising two different fixed escitalopram doses (10 mg and 20 mg per day) for eight weeks. A placebo-arm was included, as was an active comparator arm in terms of 40 mg citalopram per day. The persons fulfilled the following criteria: (a) DSM-IV (i) major depression with symptoms present for a minimum of 4 weeks; (b) minimum total score of 22 on the 10-item MADRS (Montgomery SA, Åsberg M., A new depression scale designed to be sensitive to change., Br. J. Psychiatry 1979, 134, 382-389) and a score of 2 or more on the HAM-D item (depressed mood) (Hamilton, M., Br. J. Soc. Clin. Psychol 1967, 6, 278-296). Persons who still fulfilled the MADRS and HAM-D criteria after 1-week, single-blind placebo lead-in were randomised to the double-blind treatment. Throughout the 8-week double-blind treatment period, persons assigned to placebo or escitalopram 10 mg daily received no adjustment of dosage. Persons in the escitalopram 20 mg daily group and in the citalopram group were titrated to their final dose of after 1 week of treatment at half of their assigned dose. […] Persons were evaluated at baseline (the end of the 1-week placebo lead-in) and after 1, 2, 4, 6, and 8 weeks. […]

[2] = analysis of data from four clinical studies; suicidal thoughts (MADRS item 10); type: in vivo, patients

**Q.** For CN(C)CCC[C@@]1(c2ccc(F)cc2)OCc2cc(C#N)ccc21 [escitalopram], which reducing suicidal thoughts [1] is on record?
**A.** The reducing suicidal thoughts was “more effective”.

**Q.** And the “overall effect on suicidal thoughts or suicidal ideation” value ([2]; after one week of treatment with 10-20 mg escitalopram compared to placebo)?
**A.** Its value is “significantly pronounced already after one week”.

**Q.** And the “percentage of patients experiencing an increase in suicidal thoughts” value ([2]; after one week of treatment, compared to patients treated with citalopram or placebo)?
**A.** Its value is “significantly lower”.

**Q.** What about the “treatment of the group of patients having a score greater than or equal to 2 on item 10 on the MADRS depression scale” value ([2]; compared to citalopram, results of four clinical studies) of the same compound?
**A.** The value was “more much more effective”.

**Q.** And the “alleviation of suicidal ideation” value ([2]; general statement of the finding)?
**A.** The value was “early alleviation of suicidal ideation”.
